Patent publication US20240009231A1, “Method for Pleurodesis and Delivery of Drugs to the Lung and Pleural Space” (University of Cincinnati, priority 2020, published 2024)

Experiments:
lungs of mice = details: mouse, in vivo
C57BL/6J mice = details: mouse, in vivo
Procedure: Either hydroxyapatite microspheres (HAMs, Fluidinova) or talc was injected via the intrapleural (i.pl.) route into C57BL/6J mice. For the mice injected with HAMs, 4 mg/g mouse of HAM/300 μL saline/mice was used. For the mice injected with talc, 2 mg/g mouse of talc/300 μL saline/mice was used. The mice were euthanized at day 0, day 7, day 14 or day 28 and post-mortem assessments were performed. Effectiveness of pleurodesis was assessed by introducing air into the pleural space. Each lung was punctured percutaneously with a 20 G needle for 12 times for left and right lung (total 24 times) (transthoracic needle puncture). Then, a CT scan was taken to measure the volume of pneumothorax air space in the thoracic cavity (see FIGS. 1A and 1B).
In addition, paraffin-embedded lung sections were stained with H&E and Mason's trichrome reagent for microscopic evaluation of pleural fibrosis and pleural thickness. Clearance of particles was assessed by microCT (see FIGS. 2A and 2B). Macroscopic pleural adhesions were scored (see FIGS. 3A, 3B and 3C); pleural lavage cells were collected to assess OLMNGC (osteoclast-like multinucleated giant cells) formation, including cytology, fibrosis- and osteoclast-related gene and protein expression of tartrate-resistant acid phosphatase (TRAP), (CTSK), and calcitonin receptor (Calcr) antibody by rtPCR and immunohistochemistry

- lung inflammation (lungs of mice): transient monocyte rich inflammation
- pulmonary fibrosis (lungs of mice): no residual fibrosis
- clearance of particles from the lungs (lungs of mice; inhaled or intranasal): cleared within a month
- amount of residual particles in the thoracic cavity (C57BL/6J mice): decreased over time
- clearance of particles (C57BL/6J mice): almost completely cleared
Substance: hydroxyapatite [HAMs]
